Data published in US4758566A, “2-(1-piperazinyl)-4-substituted phenylquinoline derivatives, processes for the preparation thereof, and pharmaceutical composition containing the same” (Dainippon Pharmaceutical Co., Ltd., priority 1984, dated 1988).

Experiments:
[1] = U.S. Pat. No. 4,237,135; cited from earlier work
[2] = U.S. Pat. No. 4,237,135; cited from earlier work; remark: listed apart in the source
[3] = U.S. Pat. No. 4,237,135; cited from earlier work; remark: listed apart in the source
[4] = U.S. Pat. Nos. 3,542,785 and 3,668,207; cited from earlier work
[5] = U.S. Pat. Nos. 3,542,785 and 3,668,207; cited from earlier work; remark: listed apart in the source
[6] = test system: ulceration induced by pylorus-ligation (Shay ulcer) in rats; assay: Effect on the ulceration induced by pylorus-ligation (Shay ulcer) in rats, Test 3; assay type: in vivo, rat (male Wistar); conditions: rat; for Ulcer index: index of 0 to 5
Protocol: Effect on the ulceration induced by pylorus-ligation (Shay ulcer) in rats […] The portion between pylorus and duodenum of each rat was ligated under ether anesthesia according to the method of Shay et al. […] Each of the animals was then allowed to stand abstained from food and water in a cage. After 18 hours, the animals were sacrificed under ether anesthesia, and the stomachs were removed and cut along the greater curvature. […] 0: no lesion 1: hemorrhage or erosion […] The inhibitory rate was determined by comparing the ulcer index in drug-treated groups with that in the control group. […] Test compounds were administered orally 30 minutes before the ligation. In the control group, a vehicle (a 0.5% tragacanth solution) was administered orally.

[7] = test system: hypothermia induced by reserpine; assay: Antireserpine activity (antagonistic effect on hypothermia induced by reserpine), Test 4; assay type: in vivo, mouse (male ddY); conditions: mouse
Protocol: Antireserpine activity (antagonistic effect on hypothermia induced by reserpine)
This test was carried out according to the method of Askew [cf. Life Sci., 2, 725 (1963)].
Male ddY mice weighing 22 g to 27 g were used in groups of 5 animals each. Test compounds were administered orally to the animals, and immediately 5 mg/kg of reserpine was injected intraperitoneally. Rectal temperature of each mouse was measured 4 hours later with a thermistor (Shibaura Electric, BMG III-130). The inhibitory rate was determined by comparing the fall of rectal temperature in drug-treated groups with that in control group. In the control group, a vehicle (a 0.5% tragacanth solution) was administered orally.

[8] = test system: ulceration induced by exposure to stress (restraint and water immersion) in rats; assay: Effect on the ulceration induced by exposure to stress (restraint and water immersion) in rats, Test 2; assay type: in vivo, rat (male Wistar); conditions: stress-induced ulcer, rat, 10 mg/kg p.o.; for inhibition in vivo at 10 mg/kg: po, 20 h, read-out: Inhibitory rate
Protocol: Effect on the ulceration induced by exposure to stress (restraint and water immersion) in rats The effect evaluated by this test is considered to be fairly well correlative to inhibitory effect on gastric acid secretion. Male Wistar rats weighing about 200 g were used in groups of 5 animals each. According to the method of Takagi et al. [cf. Japan. […] After 20 hours, the animals were taken out from the water bath and sacrificed under ether anesthesia, and the stomachs were removed. The stomach was inflated with 13 ml of physiological saline and placed in a 5% formalin solution for 5 minutes. After washing with physiological saline, the stomach was cut along the greater curvature and the length (mm) of each lesion in the glandular portion was measured using a dissecting microscope (×12). The sum of the length (mm) of each lesion in a stomach was indicated as an ulcer index. The inhibitory rate was determined by comparing the ulcer index in drug-treated groups with that in control group. Test compounds were administered orally 30 minutes before the immersion. In the control group, a vehicle (a 0.5% tragacanth solution) was administered orally.

[9] = test system: ulceration induced by ethanol in rats; assay: Effect on the ulceration induced by ethanol in rats (gastric cytoprotection activity), Test 1; assay type: in vivo, rat (male Wistar); conditions: ethanol-induced ulcer, rat
Protocol: Effect on the ulceration induced by ethanol in rats (gastric cytoprotection activity) This test was carried out according to the method of Robert [cf. […] Male Wistar rats weighing 190 g to 200 g were fasted for 24 hours and then given orally 1 ml of absolute ethanol. After 1 hour, the animals were sacrificed under ether anesthesia, and the stomachs were removed and cut along the greater curvature. The length (mm) of each lesion in the glandular portion was measured using a dissecting microscope (×12). The sum of the length (mm) of each lesion in a stomach was indicated as an ulcer index. The inhibitory rate was determined by comparing the ulcer index in drug-treated groups with that in control group. Test compounds were administered orally 30 minutes before the administration of ethanol. In the control group, a vehicle (a 0.5% tragacanth solution) was administered orally.

Male ddY mice = assay: Acute toxicity, Test 5; assay type: in vivo, mouse (male ddY); conditions: 7 days; for Number of dead animals/number of used animals: mouse
Excerpt: Male ddY mice weighing 20 g to 25 g were used in groups of 10 animals each. Test compounds, dissolved or suspended in a 0.5% tragacanth solution, were orally administered at a prescribed dose to the animals.

[10] = po, 1 h, 10 mg/kg p.o., read-out: Inhibitory rate

## CCN1CCN(c2cc(-c3ccccc3)c3ccccc3n2)CC1 [2-(4-ethyl-1-piperazinyl)-4-phenylquinoline]
[1]
  antireserpine activity: have an antireserpine activity
[2]
  inhibitory effect on spontaneous locomotor activity: inhibitory effect on spontaneous locomotor activity
[3]
  antitremorine activity: have also antitremorine activity

## CN1CCN(c2cc(-c3ccccc3)c3cc(Cl)ccc3n2)CC1 [6-chloro-2-(4-methyl-1-piperazinyl)-4-phenylquinoline]
[4]
  diuretic activity: have antiinflammatory and diuretic activities
[5]
  antiinflammatory activity: have antiinflammatory and diuretic activities

## Cl.Cl.OCCN1CCN(c2cc(-c3ccc(F)cc3)c3ccccc3n2)CC1 [A, 2-[4-(2-hydroxyethyl)-1-piperazinyl]-4-(4-fluorophenyl)quinoline dihydrochloride]
[6]; Shay ulcer, 10 mg/kg p.o.
  Inhibitory rate: 33.3%
  Ulcer index: 2.4 ± 0.4
[6]; Shay ulcer, 20 mg/kg p.o.
  Inhibitory rate: 44.4%
  Ulcer index: 2 ± 0.8
[6]; Shay ulcer, 50 mg/kg p.o.
  Inhibitory rate: 61.1%
  Ulcer index: 1.4 ± 0.2
[6]; Shay ulcer, 100 mg/kg p.o.
  Inhibitory rate: 66.7%
  Ulcer index: 1.2 ± 0.2
[6]; po, 18 h, Shay ulcer, graphic method, read-out: ED50 (dose required to inhibit ulcer index by 50%)
  ED50: 26.5 mg/kg
[6]; p.o., vs cimetidine
  potency relative to cimetidine in preventive effect on Shay ulcer: about 10 times
[7]; 50 mg/kg p.o.
  Inhibitory rate: 20.6%
[7]; 100 mg/kg p.o.
  Inhibitory rate: 65.5%
[8]
  inhibition in vivo at 10 mg/kg: 69.2%
  Ulcer index: 7.4 ± 3.6 mm
[9]; 5 mg/kg p.o.
  Ulcer index: 31.6 ± 11.3 mm
[9]; 10 mg/kg p.o.
  Ulcer index: 9.8 ± 2.9 mm
[9]; 20 mg/kg p.o.
  Ulcer index: 9.2 ± 4.1 mm
[9]; po, 1 h, 5 mg/kg p.o., read-out: Inhibitory rate
  inhibition in vivo at 5 mg/kg: 33.9%
[9]; [10]
  inhibition in vivo at 10 mg/kg: 79.5%
[9]; po, 1 h, 20 mg/kg p.o., read-out: Inhibitory rate
  inhibition in vivo at 20 mg/kg: 80.8%
Male ddY mice; 250 mg/kg p.o.
  death of mouse (in words): death of mouse was not observed
  Number of dead animals/number of used animals: 0/10
Male ddY mice; 500 mg/kg p.o.
  Number of dead animals/number of used animals: 2/10
Male ddY mice; 1000 mg/kg p.o.
  Number of dead animals/number of used animals: 5/10

## Cc1ccc(-c2cc(N3CCN(CCO)CC3)nc3ccccc23)cc1.O=C(O)/C=C\C(=O)O.O=C(O)/C=C\C(=O)O [E, 2-[4-(2-hydroxyethyl)-1-piperazinyl]-4-(4-methylphenyl)quinoline dimaleate]
[7]; 100 mg/kg p.o.
  Inhibitory rate: 51.3%
[8]
  inhibition in vivo at 10 mg/kg: 69.7%
  Ulcer index: 11.8 ± 4.6 mm
[9]; 10 mg/kg p.o.
  Ulcer index: 12.0 ± 2.3 mm
[9]; [10]
  inhibition in vivo at 10 mg/kg: 64.4%
